From patent publication US6369268B1, “Diester amine adducts” (Ciba Specialty Chemicals Corporation, priority 1997, dated 2002)

Experiments:
Assay in all cases: Agar diffusion test (microbiological test)
Type in all cases: cell-based
Conditions in all cases: 100 μl of a 1% solution in abs. ethanol; 48 h incubation at 37° C.
[1] = tested on: Staphylococcus aureus ATCC 9144
Experimental: (§1) Casein soybean flour peptone agar (Merck)
(§2) Casein soybean flour peptone broth (Merck)
Staphylococcus aureus ATCC 9144
(§3) Preparation of the Germ Suspensions
(§4) The test germs are cultivated overnight (about 18 h) at 37° C. in Caso-Broth (5 ml test tubes). The germ count of the overnight cultivation is determined by the spiralometer method and must be between 10^8-10^9 KBE/ml.
(§5) The culture is diluted to about 10^7 KBE/ml with 0.85% NaCl solution, pH 7.2.
(§6) Petri dishes are filled with about 18 ml of sterile nutrient agar which is allowed to solidify.
(§7) 3.5 ml of the germ dilution in 0.85% NaCl are pipetted into 500 ml of still liquid agar which is cooled in a water bath to 47° C. and homogenised.
(§8) 6 ml of the germ-infested agar are evenly distributed on the solidified ground layer. After a drying and storage time of about 24 hours at 4° C. the dishes are ready for the test.
(§9) Drop Amount 100 μl of a 1% solution of the tetraester of formula (104) in abs. ethanol are pipetted into the centre of the dish and are dried for about 30 minutes at room temperature (the substances run into zones of about 20-30 mm).
(§10) Results of the Agar Diffusion Test
(§11) After a 48 h incubation of the agar dishes at 37° C., the growth of the […] in the drop zone is assessed.

[2] = tested on: Corynebacterium xerosis ATCC 373
Experimental: as §1, §2
Corynebacterium xerosis ATCC 373
as §3, §4, §5, §6, §7, §8, §9, §10, §11

[3] = tested on: Escherichia coli NCTC 8196
Experimental: as §1, §2
Escherichia coli NCTC 8196
as §3, §4, §5, §6, §7, §8, §9, §10, §11

| SMILES | growth in the drop zone, Staphylococcus aureus ATCC 9144 [1] | growth in the drop zone, Corynebacterium xerosis ATCC 373 [2] | growth in the drop zone, Escherichia coli NCTC 8196 [3] |
| --- | --- | --- | --- |
| CCCCC(CC)COC(=O)CC(NCCNC(CC(=O)OCC(CC)CCCC)C(=O)OCC(CC)CCCC)C(=O)OCC(CC)CCCC (mixture of isomers) [ethylenediaminedisuccinic acid tetra(isooctyl)ester (isomer mixture), [S,S]-/[R,R]-/[R,S]-Ethylenediaminedisuccinic acid tetraisooctyl ester (isomer mixture)] | no inhibition | inhibition | no inhibition |
| CCCCC(CC)COC(=O)C[C@H](NCCN[C@@H](CC(=O)OCC(CC)CCCC)C(=O)OCC(CC)CCCC)C(=O)OCC(CC)CCCC (stereo partly drawn) [[S,S]-Ethylenediaminedisuccinic acid tetraisooctyl ester] | no inhibition | inhibition | no inhibition |
